In ChEMBL document CHEMBL1201862, “PubChem BioAssay data set” (2004):
The source made the active and inactive calls.

Experiments:
H9c2 = assay: cells; type: functional, cell-based; conditions: Rattus norvegicus, H9c2, Myocardium;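 note: confirmatory concentration-response retest of ultra-high-throughput screening hits for modulation of myocardial damage; cell death induced by hydrogen peroxide oxidative stress; compound pretreatment for 60 min then peroxide exposure for 2 h; potency is for protecting the cells against peroxide damage rather than for killing them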
[1] = biological target: Induced myeloid leukemia cell differentiation protein Mcl-1 (Homo sapiens, UniProt Q07820); type: functional
[2] = Luminescence Cell-Based Dose Response HTS to Identify Inhibitors of 5'UTR Stem-Loop Driven Prion Protein mRNA Translation in H4 Neuroglioblastoma Cells. [Related pubchem assays: 1827 (Project Summary), 1813 (Primary HTS)]; type: functional
[3] = inhibitors of SNCA 5'UTR-driven reporter translation, confirmation, H4 neuroglioma cells, luminescence (AID 1988); type: functional, cell-based
[4] = inhibitors of firefly luciferase expression or activity, dose response, H4 neuroglioma cells, luminescence (AID 1990); type: functional, cell-based
H4 = assay: Luminescence Cell-Based Dose Response HTS to Identify Activators of 5'UTR Stem-Loop Driven Prion Protein mRNA Translation in H4 Neuroglioblastoma Cells. [Related pubchem assays: 1829 (Project Summary), 1814 (Primary HTS)]; type: functional; conditions: Homo sapiens
[5] = cytotoxicity toward DRD oncogenic fibroblasts, dose response, cell-based, non-viral oncogenic, luminescence (AID 1934); type: functional; conditions: Homo sapiens
BJ [6] = assay: cytotoxicity toward BJ-TERT fibroblasts, dose response, cell-based, RAS-independent, luminescence (AID 1933); type: functional; conditions: Homo sapiens
[7] = Luminescence Cell-Based Dose Response HTS to Identify Activators of Luciferase Translation or Activity in H4 […] Cells. [Related pubchem assays: 1829 (Project Summary), 1814 (Primary HTS)]; type: functional
BJ [8] = assay: cytotoxicity toward BJ-TERT-LT-ST fibroblasts, dose response, cell-based, RAS-independent, luminescence (AID 1935); type: functional; conditions: Homo sapiens;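 note: BJ fibroblasts immortalized with TERT plus LT and ST oncogenes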
BJ [9] = assay: cells; type: functional, cell-based; conditions: Homo sapiens
[10] = Luminescence Cell-Based Dose Confirmation HTS to Identify Activators of 5'UTR Stem-Loop Driven Alpha-Synuclein mRNA Translation in H4 Neuroglioblastoma Cells. [Related pubchem assays: 1829 (Project Summary), 1814 (Primary HTS)]; type: functional
Coagulation factor XII = biological target: T1, Coagulation factor XII (Homo sapiens, UniProt P00748); type: functional;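 note: activated factor XIIa alpha cleaving a fluorogenic AMC peptide substrate; inhibitor potency from loss of enzyme activity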
T1 sequence (P00748 whole entry): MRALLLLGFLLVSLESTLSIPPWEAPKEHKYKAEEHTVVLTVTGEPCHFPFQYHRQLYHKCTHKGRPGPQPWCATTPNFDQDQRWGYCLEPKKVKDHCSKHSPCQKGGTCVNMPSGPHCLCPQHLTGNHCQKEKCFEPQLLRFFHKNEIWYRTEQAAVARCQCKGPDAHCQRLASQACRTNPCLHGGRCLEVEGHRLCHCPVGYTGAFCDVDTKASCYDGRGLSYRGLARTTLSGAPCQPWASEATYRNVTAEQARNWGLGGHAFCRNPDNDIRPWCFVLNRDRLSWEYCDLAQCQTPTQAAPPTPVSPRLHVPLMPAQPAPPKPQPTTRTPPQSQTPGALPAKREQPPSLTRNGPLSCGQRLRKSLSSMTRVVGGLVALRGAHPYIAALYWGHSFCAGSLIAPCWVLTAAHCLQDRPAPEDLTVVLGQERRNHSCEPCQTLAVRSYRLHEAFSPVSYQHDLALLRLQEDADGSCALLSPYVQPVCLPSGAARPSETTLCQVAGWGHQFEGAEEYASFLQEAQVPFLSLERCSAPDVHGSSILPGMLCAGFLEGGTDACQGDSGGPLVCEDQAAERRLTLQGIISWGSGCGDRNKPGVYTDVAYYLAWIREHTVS

P388/ADR = assay: cells; type: functional; conditions: Mus musculus
P388 = assay: cells; type: functional; conditions: Mus musculus
SN12K1 = assay: cells; type: functional; conditions: Homo sapiens
[11] = P. falciparum Dd2 growth inhibitors, dose response, SYBR Green, cherry-picked samples (AID 1159567); type: functional, cell-based

Chain of Induced myeloid leukemia cell differentiation protein Mcl-1 (Q07820 whole entry): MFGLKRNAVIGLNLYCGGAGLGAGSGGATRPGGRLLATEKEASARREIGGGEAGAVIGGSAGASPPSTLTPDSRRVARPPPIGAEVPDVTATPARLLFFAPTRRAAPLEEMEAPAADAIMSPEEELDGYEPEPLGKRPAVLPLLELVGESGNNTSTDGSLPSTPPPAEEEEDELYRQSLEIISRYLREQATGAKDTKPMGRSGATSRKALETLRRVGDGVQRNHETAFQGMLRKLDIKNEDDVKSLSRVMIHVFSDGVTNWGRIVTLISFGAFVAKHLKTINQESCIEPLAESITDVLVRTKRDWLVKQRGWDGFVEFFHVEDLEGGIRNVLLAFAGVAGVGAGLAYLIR

COc1ccnc(Oc2ccccc2)c1C(=O)N=CNOCc1ccc(F)cc1Cl
IC50 (H9c2): > 79 µM (inactive)

O=C(CSc1nc2ccccc2s1)Nc1cc(S(=O)(=O)N2CCOCC2)ccc1O
IC50 [1]: 1.75 µM (active)

CCOc1ccccc1/C=C(/NC(=O)c1ccccc1)C(=O)N(CC)CC
EC50 [2]: > 120 µM (not active)
EC50 [3]: > 120 µM (not active)
EC50 [4]: > 120 µM (not active)

Cc1cccc(N2C(=O)NC(=O)/C(=C\c3c(-c4ccccc4)[nH]c4ccccc34)C2=O)c1
EC50 (H4): > 120 µM (not active)
EC50 [5]: 3.33 µM (active)
EC50 (BJ [6]): 3.69 µM (active)
EC50 [7]: 0.511 µM (active)
EC50 (BJ [8]): 11.5 µM (inconclusive)
EC50 (BJ [9]): 58.6 µM (active)
EC50 [10]: > 120 µM (not active)

COc1ccccc1C(=O)n1nc(-c2cccnc2)nc1N
IC50 (Coagulation factor XII): 0.503 µM (active)

COc1ccc(CCNC(=O)CN(c2ccc(OC)c(OC)c2)S(C)(=O)=O)cc1
IC50 [1]: 26 µM (not active)

Cc1sc2nc(CSCC(=O)N(C)CC(=O)Nc3ccc(F)cc3)nc(O)c2c1C
IC50 (H9c2): 7.7 µM (active)

C=CC[C@@H](CC(=O)NCCO)C(=O)NC[C@H](OC(=O)[C@@H](CC=C)Cc1ccc(F)cc1)c1ccccc1
IC50 (H9c2): > 79 µM (inactive)

CCC(C)C1NC(=O)CNC(=O)C2Cc3c([nH]c4cc(O)ccc34)[S+]([O-])CC(NC(=O)CNC1=O)C(=O)NC(CC(=O)O)C(=O)N1CC(O)CC1C(=O)NC(C(C)C(O)CO)C(=O)N2 (centres undefined)
GI50 (P388/ADR): 2.77 µM (inactive)
GI50 (P388): 2.47 µM (inactive)
GI50 (SN12K1): 2.32 µM (inactive)

COc1ccc(CC(N)=O)cc1OC
GI50 (P388/ADR): > 1250 µM (inactive)
GI50 (P388): > 1250 µM (inactive)
GI50 (SN12K1): > 1250 µM (inactive)

Cc1ccc(-c2ccccc2[C@H]2[C@@H](C#N)N(C(=O)NC3CCCC3)[C@H]2CO)cc1
AC50 [11]: 7.19 µM (active)

COc1ccccc1NC(=O)N1CC[C@H]2[C@@H]1c1cc(C#Cc3ccc(F)cc3)ccc1N(C)[C@H]2CO
AC50 [11]: 4.14 µM (active)
